Data from PubChem BioAssay AID1963961 (Molecular Pharmacology Branch, DTP, NCI, 2024).

Tested on: K98450-129-R-PDC multicell spheroids, viability
Assay: Anticancer human tumor K98450-129-R-PDC patient-derived colon adenocarcinoma cell line growth inhibition [PI3K]
Conditions: for IC50: curve of first compound; for viability, T/C: stronger effect = lower value
Outline: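 Multi-cell spheroids combine tumor cells with HUVEC and human MSCs, treated with targeted agents alone or with inavolisib, alpelisib, duvelisib or copanlisib. Concentrations fall in half-log steps from at or near clinical Cmax, or from 10 microM where Cmax is unknown; viability read-out.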

[1] = second compound 0.0316 µM, first compound 0.0316 µM
[2] = second compound 0.0316 µM, first compound 0.1 µM
[3] = second compound 0.0316 µM, first compound 0.316 µM
[4] = second compound 0.0316 µM, first compound 1 µM
[5] = second compound 0.0316 µM, first compound 3.16 µM
[6] = second compound 0.0316 µM, first compound 10 µM
[7] = second compound 0.1 µM, first compound 0.0316 µM
[8] = second compound 0.1 µM, first compound 0.1 µM
[9] = second compound 0.1 µM, first compound 0.316 µM
[10] = second compound 0.1 µM, first compound 1 µM
[11] = second compound 0.1 µM, first compound 3.16 µM
[12] = second compound 0.1 µM, first compound 10 µM
[13] = second compound 0.316 µM, first compound 0.0316 µM
[14] = second compound 0.316 µM, first compound 0.1 µM
[15] = second compound 0.316 µM, first compound 0.316 µM
[16] = second compound 0.316 µM, first compound 1 µM
[17] = second compound 0.316 µM, first compound 3.16 µM
[18] = second compound 0.316 µM, first compound 10 µM
[19] = second compound 1 µM, first compound 0.0316 µM
[20] = second compound 1 µM, first compound 0.1 µM
[21] = second compound 1 µM, first compound 0.316 µM
[22] = second compound 1 µM, first compound 1 µM
[23] = second compound 1 µM, first compound 3.16 µM
[24] = second compound 1 µM, first compound 10 µM
[25] = second compound 3.16 µM, first compound 0.0316 µM
[26] = second compound 3.16 µM, first compound 0.1 µM
[27] = second compound 3.16 µM, first compound 0.316 µM
[28] = second compound 3.16 µM, first compound 1 µM
[29] = second compound 3.16 µM, first compound 3.16 µM
[30] = second compound 3.16 µM, first compound 10 µM
[31] = second compound 10 µM, first compound 0.0316 µM
[32] = second compound 10 µM, first compound 0.1 µM
[33] = second compound 10 µM, first compound 0.316 µM
[34] = second compound 10 µM, first compound 1 µM
[35] = second compound 10 µM, first compound 3.16 µM
[36] = second compound 10 µM, first compound 10 µM
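Note: spheroids exposed to agents for seven days before read-out.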

Question: Which results are given for CC(C)NCC(C(=O)N1CCN(c2ncnc3c2C(C)CC3O)CC1)c1ccc(Cl)cc1 (centres undefined) + Cc1nc(NC(=O)N2CCCC2C(N)=O)sc1-c1ccnc(C(C)(C)C(F)(F)F)c1?
Answer: IC50 (second compound 0.0316 µM): > 10 µM; IC50 (second compound 0.1 µM): > 10 µM; IC50 (second compound 0.316 µM): > 10 µM; IC50 (second compound 1 µM): > 10 µM; IC50 (second compound 3.16 µM): > 10 µM; IC50 (second compound 10 µM): > 10 µM; viability, T/C [1]: 104%; viability, T/C [2]: 99.1%; viability, T/C [3]: 107%; viability, T/C [4]: 104%; viability, T/C [5]: 100%; viability, T/C [6]: 102%; viability, T/C [7]: 108%; viability, T/C [8]: 98.8%; viability, T/C [9]: 103%; viability, T/C [10]: 100%; viability, T/C [11]: 103%; viability, T/C [12]: 99.9%; viability, T/C [13]: 104%; viability, T/C [14]: 105%; viability, T/C [15]: 104%; viability, T/C [16]: 95.2%; viability, T/C [17]: 101%; viability, T/C [18]: 97%; viability, T/C [19]: 84.6%; viability, T/C [20]: 93.1%; viability, T/C [21]: 96.5%; viability, T/C [22]: 89.6%; viability, T/C [23]: 102%; viability, T/C [24]: 94.5%; viability, T/C [25]: 86.6%; viability, T/C [26]: 84.1%; viability, T/C [27]: 90.2%; viability, T/C [28]: 80.3%; viability, T/C [29]: 95.6%; viability, T/C [30]: 91.1%; viability, T/C [31]: 70.7%; viability, T/C [32]: 78%; viability, T/C [33]: 77%; viability, T/C [34]: 73.1%; viability, T/C [35]: 78.1%; viability, T/C [36]: 75%

Question: How did the IC50 (second compound 0.0316 µM) turn out when CC(C)NCC(C(=O)N1CCN(c2ncnc3c2C(C)CC3O)CC1)c1ccc(Cl)cc1 (centres undefined) + CC(Nc1ncnc2nc[nH]c12)c1cc2cccc(Cl)c2c(=O)n1-c1ccccc1 was run?
Answer: > 10 µM

Question: And the IC50 (second compound 0.1 µM)?
Answer: > 10 µM

Question: And the IC50 (second compound 0.316 µM)?
Answer: > 10 µM

Question: What about the IC50 (second compound 1 µM) of the same molecule?
Answer: > 10 µM

Question: And the IC50 (second compound 3.16 µM)?
Answer: > 10 µM

Question: And the IC50 (second compound 10 µM)?
Answer: > 10 µM

Question: And the viability, T/C [1]?
Answer: 98.2%

Question: What about the viability, T/C [2] of the same molecule?
Answer: 107%

Question: And the viability, T/C [3]?
Answer: 101%

Question: And the viability, T/C [4]?
Answer: 96.4%

Question: And the viability, T/C [5]?
Answer: 102%

Question: And the viability, T/C [6]?
Answer: 98.5%

Question: And the viability, T/C [7]?
Answer: 111%

Question: What about the viability, T/C [8] of the same molecule?
Answer: 115%

Question: And the viability, T/C [9]?
Answer: 99.3%

Question: What about the viability, T/C [10] of the same molecule?
Answer: 89.6%

Question: And the viability, T/C [11]?
Answer: 94.9%

Question: What about the viability, T/C [12] of the same molecule?
Answer: 83.4%

Question: What about the viability, T/C [13] of the same molecule?
Answer: 96.6%

Question: And the viability, T/C [14]?
Answer: 97.2%

Question: What about the viability, T/C [15] of the same molecule?
Answer: 87.1%

Question: And the viability, T/C [16]?
Answer: 105%

Question: What about the viability, T/C [17] of the same molecule?
Answer: 105%

Question: And the viability, T/C [18]?
Answer: 102%

Question: And the viability, T/C [19]?
Answer: 106%

Question: What about the viability, T/C [20] of the same molecule?
Answer: 100%

Question: And the viability, T/C [21]?
Answer: 104%

Question: And the viability, T/C [22]?
Answer: 98.4%

Question: What about the viability, T/C [23] of the same molecule?
Answer: 115%

Question: And the viability, T/C [24]?
Answer: 101%

Question: And the viability, T/C [25]?
Answer: 79.2%

Question: What about the viability, T/C [26] of the same molecule?
Answer: 88.4%

Question: What about the viability, T/C [27] of the same molecule?
Answer: 101%

Question: What about the viability, T/C [28] of the same molecule?
Answer: 99.2%

Question: What about the viability, T/C [29] of the same molecule?
Answer: 97.5%

Question: And the viability, T/C [30]?
Answer: 85.7%

Question: And the viability, T/C [31]?
Answer: 110%

Question: What about the viability, T/C [32] of the same molecule?
Answer: 89.5%

Question: What about the viability, T/C [33] of the same molecule?
Answer: 77.5%

Question: And the viability, T/C [34]?
Answer: 88.6%

Question: And the viability, T/C [35]?
Answer: 103%

Question: What about the viability, T/C [36] of the same molecule?
Answer: 87.2%
